Patent publication US3934036A, “N-benzenesulfonyl-β-alanine hydrazide useful as an immunosuppressive agent” (priority 1975, dated 1976)
Entries after “also recorded” stand apart in the source; their conditions may differ.

How the values were obtained:
[1] = tested on: adjuvant arthritis; assay: Adjuvant arthritis in rats, prophylactic experiment; details: for increase in arthritis score / swelling of adjuvant-injected and non-injected feet: once daily for 17 days
[2] = tested on: 7S plaque-forming cells; assay: Antibody production to sheep erythrocytes, 7S plaque-forming cells, comparison with other agents; details: i.p.; for Spleen weight, mean ± S.E. / 7S PFC/10^6 spleen cells, mean ± S.E. / Mean body weight gain: 8 days; for Spleen weight, mean ± S.E.: control 125 ± 16; for 7S PFC/10^6 spleen cells, mean ± S.E.: control 1045 ± 202; for Mean body weight gain: control +1.0
Protocol: The effect of KH-125 on antibody production in ddY mice was examined by Cunningham and Szenberg's plaque technique (Immunology, 14, 599, 1968) and compared with other agents.
Mice were immunized by intravenous injection of washed sheep erythrocytes (4 × 10^8 cells/mouse). Administration of KH-125 was made orally for 4 consecutive days from the day of antigen injection. 19S Plaque-forming cells (PFC) were counted 4 days after immunization.
In comparative experiment, test agents were administered intraperitoneally for 8 consecutive days from one day before immunization. 7S PFC's were counted 9 days after immunization.

[3] = established immunosuppressive drugs; cited from earlier work
[4] = tested on: nephrotoxic nephritis; assay: Nephrotoxic nephritis in rats, prophylactic experiment; type: in vivo, Wistar rats
Protocol: Protein-uria was measured 18 days after nephrotoxin injection, then for electron microscopic examination the rats were killed 2 days later.
Urinary protein was measured 18 days after the nephrotoxin-injection, and then the nephrotic rats were sacrificed 2 days later for histopathological examinations.

[5] = tested on: Wistar rats; assay: Chronic toxicity study, 6 months oral; type: in vivo
Protocol: The chronic toxicity study of KH-125 was carried out in Wistar rats of both sexes. Rats were treated orally with KH-125 for 6 months at the dose levels of 0 (control), 10, 20 and 40 mg/kg/day.

[6] = tested on: Wistar rats; assay: Acute toxicity in rats (LD50); type: in vivo; details: rats, male vs female
Protocol: (§1) The acute toxicity of KH-125 was studied in both sexes of ddY mice and Wistar rats. The LD50 values were calculated by the method of Litchfield and Wilcoxon (J. Pharmacol. Exptl. Ther., 96, 99, 1949).

[7] = Acute toxicity in rats (LD50); type: in vivo, Wistar rats; details: rat, in vivo
Protocol: as §1

[8] = tested on: rats, rabbits and mice; assay: Subacute and chronic toxicity, teratological and carcinogenic studies (summary); type: in vivo; details: subacute, chronic
Protocol: (§2) Its toxicological properties were evaluated by subacute and chronic toxicity tests in rats, by teratological studies in rats and rabbits and also by carcinogenic tests in mice and rats.

[9] = tested on: ddY mice; assay: Acute toxicity in mice (LD50); type: in vivo; details: mice, male vs female
Protocol: as §1

[10] = Acute toxicity in mice (LD50); type: in vivo, ddY mice; details: mouse, in vivo
Protocol: as §1

[11] = tested on: nephrotoxic nephritis; assay: Nephrotoxic nephritis in rats, comparative experiment; type: in vivo, Wistar rats; details: p.o. once daily, 15 days; protein-uria, fusion index, basement membrane thickening
Protocol: Protein-uria was measured 18 days after nephrotoxin injection, then for electron microscopic examination the nephrotic rats were killed 3 days later. See legend of FIG. 2 for other details.
The effect of KH-125 on nephrotoxic nephritis in Wistar rats was evaluated from the following three points: (1) urinary protein measurements, (2) electron microscopic findings and (3) light microscopic findings. Nephrotic rats were prepared according to Shibata's method. (Ths Saishin-Igaku, 20, 1089, 1965).
In a comparative experiment, test agents were administered once daily: KH-125, 15 days during days 0 - 10 and 15 - 18 (p.o.); 6-mercaptopurine (6-MP), 6 days during days 0 - 5 (p.o.); cyclophosphamide, 11 days during days 0 - 10 (i.p.); and prednisolone, 11 days during days 0 - 10 (i.p.), starting from the day of nephrotoxin-injection. Urinary protein was measured 18 days after the injection of nephrotoxin, and then the animals were sacrificed 3 days later for histopathological examinations.

[12] = tested on: rats and rabbits; assay: Teratological studies; type: in vivo
Protocol: as §2

[13] = tested on: antibody formation to sheep erythrocytes; assay: Screening for ability to suppress antibody formation to sheep erythrocytes in mice; type: in vivo
Protocol: In an attempt to find an immunosuppressive agent having a lowered toxicity, about fifty acid hydrazides, mainly amino acid hydrazide derivatives, were synthesized and screened for their ability to suppress the antibody formation to sheep erythrocytes in mice. […] Further detailed pharmacological and toxicological studies were then performed about KH-125.

[14] = tested on: 19S plaque-forming cells; assay: Antibody production to sheep erythrocytes, 19S plaque-forming cells (oral administration); type: in vivo, ddY mice; details: 4 days; for Mean body weight gain: control +0.8
Text: Mice were immunized by intravenous injection of washed sheep erythrocytes (4 × 10^8 cells/mouse). […] 19S Plaque-forming cells (PFC) were counted 4 days after immunization.

[15] = tested on: mice and rats; assay: Carcinogenic tests; type: in vivo
Protocol: as §2

[16] = oral, electron microscopic findings
[17] = 6 months, 10, 20 and 40 mg/kg/day

## Sc1ncnc2nc[nH]c12 [6-mercaptopurine, reference compound]
[1]; oral, 30 mg/kg/day, 17 days
  rats died during the experiment: Three of 7
[1]; oral
  increase in arthritis score: dose-dependently suppressed
  swelling of adjuvant-injected and non-injected feet: dose-dependently suppressed
[2]; 30 mg/kg/day
  Spleen weight, mean ± S.E.: 103 ± 12 mg
[2]; 30 mg/kg/day, p < 0.05
  7S PFC/10^6 spleen cells, mean ± S.E.: 385 ± 83 7SPFC/10^6 spleen cells
[3]
  teratogenic and carcinogenic effect: inevitably shared

## NNC(=O)CCNS(=O)(=O)c1ccccc1 [KH-125, N-benzenesulfonyl-β-alanine hydrazide]
[4]; oral
  light microscopic findings: good improvement of nephritis
[4]; [16]
  fusion index of epithelial foot processes: improved
  thickening of glomerular basement membrane: suppressed
[4]; oral, twice a day, 18 days after nephrotoxin injection
  protein-uria: decreased dose-dependently
[4]; rats
  suppression of experimental nephrotoxic nephritis (summary): suppress adjuvant arthritis as well as experimental nephrotoxic nephritis
[5]; 6 months, 40 mg/kg/day
  body weight gain: slightly inhibited
[5]; [17]
  erythrocyte count and hemoglobin: dose-dependent decrease
  general symptoms, food intake, urinalysis, and fractionation of serum protein: No significant effects
  histopathological examinations: No toxic effects which could be attributed to the drug were detected
  serum enzyme activities, S-GOT and S-GPT: slight but dose-dependent increases
  survival: All rats survived
[6]
  sex difference concerning the acute toxicity: No sex difference
[7]; ip, female rats
  LD50: 2580 mg/kg
[7]; ip, male rats
  LD50: 2150 mg/kg
[7]; po, female rats
  LD50: > 4000 mg/kg
[7]; po, male rats
  LD50: > 4000 mg/kg
[7]; sc, female rats
  LD50: > 4000 mg/kg
[7]; sc, male rats
  LD50: > 4000 mg/kg
[1]; after withdrawal
  rebound of foot swelling after withdrawal: not prominent
[1]; oral, as high as 80 mg/kg/day, 17 days
  survival during the experiment: survived throughout the test period
[1]; oral
  increase in arthritis score: dose-dependently suppressed
  swelling of adjuvant-injected and non-injected feet: dose-dependently suppressed
[1]; rats
  suppression of adjuvant arthritis (summary): suppress adjuvant arthritis
[1]; versus 6-mercaptopurine, adjuvant arthritis
  safety margin (maximal tolerated dose in repeated administration versus effective dose) relative to 6-mercaptopurine: about 3 times
[8]
  toxicity compared with well-known immunosuppressive agents: considerably lower toxicity than well-known immunosuppressive agents
[9]
  sex difference concerning the acute toxicity: No sex difference
[10]; ip, female mice
  LD50: 1410 mg/kg
[10]; ip, male mice
  LD50: 1230 mg/kg
[10]; po, female mice
  LD50: 1570 mg/kg
[10]; po, male mice
  LD50: 1520 mg/kg
[10]; sc, female mice
  LD50: 1440 mg/kg
[10]; sc, male mice
  LD50: 1150 mg/kg
[11]
  suppression of nephrotoxic nephritis, compared with 6-mercaptopurine, cyclophosphamide and prednisolone: most effectively suppressed
[12]
  teratogenic effect: neither teratogenic nor carcinogenic effect
[13]; mice, antibody formation to sheep erythrocytes
  immunosuppressive activity among about fifty acid hydrazides tested: most potent immunosuppressive activity
[13]; screening
  acute toxicity among the compounds tested: fairly lower acute toxicity
[2]; 200 mg/kg/day, p < 0.01
  Spleen weight, mean ± S.E.: 60 ± 8 mg
  7S PFC/10^6 spleen cells, mean ± S.E.: 233 ± 63 7SPFC/10^6 spleen cells
[2]; 200 mg/kg/day
  Mean body weight gain: -4.5 g
[2]; 8 consecutive days
  suppressive effect on the appearance of 7S PFC, compared with other agents: higher than that of prednisolone or 6-mercaptopurine; also recorded: less effective than cyclophosphamide
[14]; 40 mg/kg/day, control 181 ± 8
  Spleen weight, mean ± S.E.: 135 ± 20 mg
[14]; 40 mg/kg/day, control 1905 ± 267
  19S PFC/10^6 spleen cells, mean ± S.E.: 1383 ± 327 19S PFC/10^6 spleen cells
[14]; 40 mg/kg/day
  Mean body weight gain: +1.0 g
[14]; 80 mg/kg/day, control 181 ± 8, p < 0.05
  Spleen weight, mean ± S.E.: 139 ± 9 mg
[14]; 80 mg/kg/day, control 1905 ± 267, p < 0.01
  19S PFC/10^6 spleen cells, mean ± S.E.: 368 ± 124 19S PFC/10^6 spleen cells
[14]; 80 mg/kg/day
  Mean body weight gain: -0.8 g
[14]; 160 mg/kg/day, control 181 ± 8
  Spleen weight, mean ± S.E.: 164 ± 14 mg
[14]; 160 mg/kg/day, control 1905 ± 267, p < 0.01
  19S PFC/10^6 spleen cells, mean ± S.E.: 329 ± 46 19S PFC/10^6 spleen cells
[14]; 160 mg/kg/day
  Mean body weight gain: -0.5 g
[14]; 40-160 mg/kg/day
  appearance of 19S PFC: dose-dependently suppressed
[15]
  carcinogenic effect: neither teratogenic nor carcinogenic effect

## O=P1(N(CCCl)CCCl)NCCCO1 (stereo not drawn) [cyclophosphamide]
[2]; 20 mg/kg/day, p < 0.05
  Spleen weight, mean ± S.E.: 87 ± 7 mg
[2]; 20 mg/kg/day, p < 0.01
  7S PFC/10^6 spleen cells, mean ± S.E.: 61 ± 8 7SPFC/10^6 spleen cells
[2]; 20 mg/kg/day
  Mean body weight gain: +0.2 g
[3]
  teratogenic and carcinogenic effect: inevitably shared

## C[C@]12C=CC(=O)C=C1CC[C@@H]1[C@@H]2[C@@H](O)C[C@@]2(C)[C@H]1CC[C@]2(O)C(=O)CO [prednisolone]
[2]; 4 mg/kg/day
  Spleen weight, mean ± S.E.: 116 ± 19 mg
  7S PFC/10^6 spleen cells, mean ± S.E.: 706 ± 178 7SPFC/10^6 spleen cells
